The results in this text go back to US10716798B2, “Compositions and methods for tranquilizing heart muscle” (THE REGENTS OF THE UNIVERSITY OF MICHIGAN, priority 2007, dated 2020).

Data set [1] relates to atrial natriuretic peptide (ANP) in HL-1 cardiomyocytes. The data set can be described thus: Repression of atrial natriuretic peptide (ANP) in HL-1 cardiomyocytes (Western blot). The following applies: HL-1 cardiomyocytes treated 48 hours, Western analysis, vs vehicle. The data set is classed as cell-based. How it is done: Induction of VDR and repression of ANP by calcitriol (1,25-(OH)2vitamin-D3) and 1 alpha analogs (1α-Hydroxyitamin-D3 and 1α-hydroxysitocalciferol) is shown in the Western blot of FIG. 7. HL-1 cardiomyocyte cells were grown until confluent then split, and an equal amount (8×10^6 cells) of cells were plated for 24 hours and then treated for 48 hours either with vehicle (control) or with the indicated amount of Vitamin D compound. Cells were then harvested and subjected to Western analysis.

Data set [2] has as its system SHHF rats. The data set can be described thus: Resting heart rate in SHHF rats after Vitamin D treatment. The following applies: 13 weeks; for Heart rate vs control SHHF rats: SQ. Format: in vivo, rat. An excerpt:
(§1) The effects of Vitamin D compounds including Vitamin D5 and D3 on the contraction of cardiomyocytes in vivo can be studied using normal and heart failure prone rats. To test the effect of Vitamin D compounds on heart failure rats, the present inventors selected the strain of rats called Spontaneously Hypertensive Heart Failure (SHHF) rats obtained from Charles River Laboratories, Wilmington Mass., USA. The SHHF rat was developed by backcrossing the SHROB rat to the SHR/N rat. They are characterized as naturally developing congestive heart failure, hypertension, nephropathy, obesity, insulin resistance, hyperinsulinemia and Type 2 diabetes spontaneously. […] Obesity is expressed as an autosomal recessive (cp/cp) trait, and hypertension is multifactorial (Yen at al., 1974). The CHF trait has been maintained through at least 15 generations. The mode of inheritance of the CHF is probably multifactorial, much like hypertension. These rats develop many of the clinical signs of CHF: generalized and subcutaneous edema, hydrothorax, ascites, dyspnea, cyanosis, enlarged hearts, left atrial thrombosis, and hyperemia of the lungs, liver, and kidneys. These rats are hypertensive, but blood pressure falls to normal levels with the onset of severe CHF. […] These morphologic changes probably reflect early compensatory LV hypertrophy at 6-10 months of age. This is followed by LV failure with elevated right heart pressures and RVFW hypertrophy, finally leading to biventricular CHF. This progression is similar to that of hypertensive heart disease in humans. Other similarities between the SHHF model and human hypertensive-diabetic cardiomyopathy (Factor et al., 1980) and another rat model of hypertension and diabetes (Factor et al., 1983) include increased heart weight and prominent interstitial fibrosis. Pathologic alterations in SHHF Rat hearts corresponding to human dilated cardiomyopathy include four-chamber dilation, intracardiac thrombi, myocyte hypertrophy, and interstitial fibrosis (Unveferth et al., 1986).
Five treatment groups were established using SHHF rats. […]

The subject of data set [3] is Vitamin D receptor (VDR) in HL-1 cardiomyocytes. The experiment in a line: Induction of VDR in HL-1 cardiomyocytes (Western blot). The data set is classed as cell-based. Conditions: HL-1 cardiomyocytes treated 48 hours, Western analysis, vs vehicle. How it is done: HL-1 cardiomyocyte cells were grown until confluent then split, and an equal amount (8×10^6 cells) of cells were plated for 24 hours and then treated for 48 hours either with vehicle (control) or with the indicated amount of Vitamin D compound. Cells were then harvested and subjected to Western analysis.
On the technique in general: A western blot detects proteins with antibodies after separation by electrophoresis.

Data set [4] relates to SHHF rats. The data set can be described thus: Systolic blood pressure by tail-cuff in SHHF rats. Format: in vivo, rat. The following applies: 100 ng/100 g bw, SQ, 13 weeks.
Description: as §1, with “This is followed by LV failure with elevated right heart pressures and RVFW hypertrophy, finally leading to biventricular CHF. This progression is similar to that of hypertensive heart disease in humans. Other similarities between the SHHF model and human hypertensive-diabetic cardiomyopathy (Factor et al., 1980) and another rat model of hypertension and diabetes (Factor et al., 1983) include increased heart weight and prominent interstitial fibrosis. Pathologic alterations in SHHF Rat hearts corresponding to human dilated cardiomyopathy include four-chamber dilation, intracardiac thrombi, myocyte hypertrophy, and interstitial fibrosis (Unveferth et al., 1986).” left out

Data set [5] is described as follows: Total body weight of SHHF rats. The following applies: 100 ng/100 g body weight, SQ, 13 weeks. Format: in vivo, rat. How it is done: (§2) Five treatment groups were established using SHHF rats. In each cohort (5-6 rats), the diets were substantially identical, rats were each fed a high salt diet (8% NaCl) (Harlan Teklad diet TD92012, Madison Wis. USA) and were accommodated equally. All treatment groups received a single once daily administration subcutaneously (SQ) of a Vitamin D compound at varying concentrations five times per week. The Vitamin D compound was dissolved in 1,2 propandiol containing 0.7% ethanol. Control SHHF rats were dosed with vehicle control alone. The animals were dosed for a period of 13 weeks before they were examined by echocardiography explained in more detail below. The first group comprised a control group in which they received a vehicle alone treatment lacking any Vitamin D. The second group consisted of SHHF rats injected with 18 ng 1,25 dihydroxy Vitamin D3 per dose, one dose per day treated animals. The third group consisted of SHHF rats injected with 33 ng of 1α-hydroxysitocalciferol per dose, one dose per day treated animals. The fourth group consisted of SHHF rats injected with 100 ng of 1α-hydroxysitocalciferol per dose, one dose per day treated animals. The fifth group consisted of SHHF rats injected with 300 ng of 1α-hydroxysitocalciferol per dose, one dose per day treated animals.
Blood pressure measurement by tail-cuff artery occlusion.

In data set [6] the test system is SHHF rats. The data set can be described thus: Cardiac hemodynamic parameters by echocardiography in SHHF rats. Format: in vivo, rat. The following applies: for E/A transmitral flow ratio, change vs control / Cardiac index vs control / Stroke volume vs control: 5 days per week for 13 weeks. How it is done:
as §2
After 13 weeks of treatment with the Vitamin D compounds or vehicle control alone, the SHHF rat's cardiac hemodynamic condition was measured, recorded and analyzed for the presence or absence of cardiac tranquilization and reversal of heart failure symptoms.
Non-invasive recording electrocardiograms and echocardiography in conscious rats: Two-dimensional and M-mode echocardiographic images will be recorded using a GE S10 MHz phased-array transducer, connected to a General Electric, Vivid 7 Ultrasound System. The System used for ECG was the AnonyMOUSE ECG Screening System (Mouse Specifics, Boston, Mass. USA). The rats are placed on the instrument's platform and acclimated for 10 min prior to ECG recordings. Animals are anesthetized using an isoflurane anesthetic machine, first by introducing 4% isoflurane and 1 liter of oxygen to an induction chamber. When rats are in lateral recumbency and the breathing is slowed, they are moved to the table where they are placed on a warming pad to maintain body temperature. Their nose is placed in a cone which supplies 1-2% isoflurane and 1 liter of oxygen to maintain a surgical plane of anesthesia. The hair is removed from the upper abdominal and thoracic area with depilatory cream. ECG is monitored via non-invasive resting ECG electrodes (trimmed to fit) placed on the paw pads. The echocardiogram takes approximately 10 minutes.
Transthoracic echocardiography is performed in the supine or left lateral position. Data are analyzed by proprietal software and all rats ECG intervals analyzed by Student's two-tail t-test. […]

Another data set relates to adult cardiomyocyte. The data set can be described thus: PKC activation and adult cardiomyocyte contractile function. The data set is classed as cell-based. How it is done: In addition to continued acceleration of relengthening in cardiomyocytes, upon administration of Vitamin D5 the PKC targets phospholamban and cardiac troponin I (cTnI) are specifically phosphorylated by PKC within approximately 60 minutes. Without being bound to theory, it is believed that phosphorylation of phospholamban can increase Ca^2+ sequestration into the sarcoplasmic reticulum while cardiac troponin C I phosphorylation decreases myofilament Ca^2+ sensitivity, two particularly significant events in increasing the relaxation of contractile function in the adult cardiomyocyte.
The pharmaceutical compositions and methods described herein illustrate a mechanism to accelerate relaxation of cardiomyocyte contractile function via direct and rapid cellular action upon administration of 1α25-dihydroxyvitamin D5. These acute effects can be blocked by PKC inhibitors, illustratively bis-I. The phosphorylation of these key cardiac markers phospholamban and troponin C I develop within the same time period as the initial rapid decrease in peak shortening, and acceleration of contraction and relaxation rates.

Where [7] appears, read: 300 ng/day, listed as Vitamin D5.

Regarding `C=C1/C(=C\C=C2/CCC[C@]3(C)[C@@H]([C@H](C)CCCC(C)(C)O)CC[C@@H]23)C[C@@H](O)C[C@@H]1O` [1,25(OH)2D3, 1,25-dihydroxyvitamin D3, reference compound], in data set [1], the “Repression of ANP expression” value is reported as “repression”. Moreover, the “Heart rate vs control SHHF rats or Wistar rats” value in the data set with SHHF rats [2] (18 ng 1,25(OH)2D3, SQ) was “higher heart rates albeit not statistically significant”.

For the compound `C=C1/C(=C\C=C2/CCC[C@]3(C)[C@@H]([C@H](C)CCCC(C)C)CC[C@@H]23)C[C@@H](O)C[C@@H]1O` [1α-Hydroxyitamin-D3, reference compound], the “Induction of VDR” value in data set [3] was “considerable induction”. The “Repression of ANP expression” value in data set [1] is given as “repression”.

On to `C=C1/C(=C\C=C2/CCC[C@]3(C)[C@@H]([C@H](C)CC[C@@H](CC)C(C)C)CC[C@@H]23)C[C@@H](O)C[C@@H]1O` [1α-hydroxysitocalciferol, 1-α-hydroxy-2,4-ethyl-9,10-seco-5,7,10(19)-cholestatrien-3 β-ol], for which the “Induction of VDR” value in data set [3] is listed as “considerable induction”. Moreover, the “Repression of ANP expression” value in data set [1] is “remarkable repression”. Further, the “Heart rate vs control SHHF rats” value in the data set with SHHF rats [2] (33 ng/100 g body weight) is recorded as “decrease”; in the data set on SHHF rats [2] (300 ng/day), “increase in heart rate”. Further, the “Systolic blood pressure vs control SHHF rats” value in the data set on SHHF rats [4] is “significant decreased BP”. Besides, the “Total body weight at 30 weeks age vs control SHHF rats” value in data set [5] is reported as “significant increased body weight”. Also, the “E/A transmitral flow ratio, change vs control” value with SHHF rats [6] (100 ng/day) is recorded as “statistically significant reduction”; in the data set on SHHF rats [6] (100 ng/day, listed as Vitamin D5) it was “significant reduction”; in the data set on SHHF rats [6] (300 ng/day), “statistically significant reduction”. Besides, the E/A ratio entry in the data set with SHHF rats [6] (300 ng/day, 13 week treatment) is given as “about 0.99”. For the same compound, the “Cardiac index vs control” value is “statistically significant reduction” with SHHF rats [6] (300 ng/day) and “significant reduction” with SHHF rats [6] (setting [7]). Besides, the results for the “Stroke volume vs control” value with SHHF rats [6] (300 ng/day) and in the data set on SHHF rats [6] (setting [7]) were “statistically significant reduction” and “Most pronounced”, respectively. In the data set on SHHF rats [6] (all doses of Vitamin D5 (33, 100, 300 ng/day), 13 weeks), the “Stroke volume, untreated SHHF rats in comparison to treated” value is “statistically significant”. Further, the “Time to phosphorylation of phospholamban and cardiac troponin I (cTnI) by PKC” value in the data set with adult cardiomyocyte (cardiomyocytes, upon administration of Vitamin D5) is not above 60 min. For the same compound, the “Relaxation in adult cardiomyocyte contractile function” value in the data set on adult cardiomyocyte (via PKC activation) was “accelerated relaxation”.
